Measured values reported in ChEMBL document CHEMBL5113489, “Design, synthesis, and biological evaluation of membrane-active honokiol derivatives as potent antibacterial agents” (Eur J Med Chem, 2022).
Active and inactive are the calls of the source. The rule behind the calls is not given here.

Columns and labels:
Staphylococcus aureus [1] = test: Antibacterial activity against Staphylococcus aureus ATCC 31007; format: functional
Pseudomonas aeruginosa = test: Antibacterial activity against Pseudomonas aeruginosa ATCC 27853; format: functional
[2] = Hemolytic activity in sheep RBC; format: toxicity, cell-based, Ovis aries, Erythrocyte; details: sheep red blood cells (erythrocytes)
Staphylococcus aureus [3] = test: Antibacterial activity against Staphylococcus aureus ATCC 43300 assessed as bacterial killing at 4 x MIC incubated for 9 hrs and measured by time-kill kinetic study; format: functional
Escherichia coli [4] = test: Antibacterial activity against Escherichia coli ATCC 25922 assessed as bacterial killing at 4 x MIC incubated for 9 hrs and measured by time-kill kinetic study; format: functional
Staphylococcus aureus [5] = test: Antibacterial activity against Staphylococcus aureus ATCC 43300 assessed as resistance development by measuring fold increase in MIC; format: functional
Staphylococcus aureus [6] = test: Anti-biofilm activity in Staphylococcus aureus ATCC 43300 assessed as inhibition of biofilm formation at 0.25 ug/ml; format: functional
Staphylococcus aureus [7] = test: Anti-biofilm activity in Staphylococcus aureus ATCC 43300 assessed as inhibition of biofilm formation at 0.5 ug/ml; format: functional
Staphylococcus aureus [8] = test: Anti-biofilm activity in Staphylococcus aureus ATCC 43300 assessed as inhibition of biofilm formation at 2 ug/ml; format: functional
Staphylococcus aureus [9] = test: Anti-biofilm activity in Staphylococcus aureus ATCC 43300 assessed as inhibition of biofilm formation at 4 ug/ml; format: functional
Staphylococcus aureus [10] = test: Anti-biofilm activity in Staphylococcus aureus ATCC 43300 assessed as inhibition of biofilm formation at 8 ug/ml; format: functional
Escherichia coli [11] = test: Anti-biofilm activity in Escherichia coli ATCC 25922 assessed as inhibition of biofilm formation at 1 ug/ml; format: functional
Escherichia coli [12] = test: Anti-biofilm activity in Escherichia coli ATCC 25922 assessed as inhibition of biofilm formation at 2 ug/ml; format: functional
Escherichia coli [13] = test: Anti-biofilm activity in Escherichia coli ATCC 25922 assessed as inhibition of biofilm formation at 4 ug/ml; format: functional
Escherichia coli [14] = test: Anti-biofilm activity in Escherichia coli ATCC 25922 assessed as inhibition of biofilm formation at 8 ug/ml; format: functional
Escherichia coli [15] = test: Anti-biofilm activity in Escherichia coli ATCC 25922 assessed as inhibition of biofilm formation at 32 ug/ml; format: functional
Staphylococcus aureus [16] = test: Anti-biofilm activity in Staphylococcus aureus ATCC 43300 assessed as disruption rate of biofilm at 4 ug/ml measured by crystal violet staining method; format: functional; details: dose 4 µg/ml
Staphylococcus aureus [17] = test: Anti-biofilm activity in Staphylococcus aureus ATCC 43300 assessed as disruption rate of biofilm at 16 ug/ml measured by crystal violet staining method; format: functional; details: dose 16 µg/ml
Escherichia coli [18] = test: Anti-biofilm activity in Escherichia coli ATCC 25922 assessed as disruption rate of biofilm at 2 ug/ml measured by crystal violet staining method; format: functional; details: dose 2 µg/ml
Escherichia coli [19] = test: Anti-biofilm activity in Escherichia coli ATCC 25922 assessed as disruption rate of biofilm at 4 ug/ml measured by crystal violet staining method; format: functional; details: dose 4 µg/ml
Escherichia coli [20] = test: Anti-biofilm activity in Escherichia coli ATCC 25922 assessed as disruption rate of biofilm at 8 ug/ml measured by crystal violet staining method; format: functional; details: dose 8 µg/ml
Escherichia coli [21] = test: Anti-biofilm activity in Escherichia coli ATCC 25922 assessed as disruption rate of biofilm at 16 ug/ml measured by crystal violet staining method; format: functional; details: dose 16 µg/ml
Escherichia coli [22] = test: Anti-biofilm activity in Escherichia coli ATCC 25922 assessed as disruption rate of biofilm at 32 ug/ml measured by crystal violet staining method; format: functional; details: dose 32 µg/ml
Escherichia coli [23] = test: Anti-biofilm activity in Escherichia coli ATCC 25922 assessed as disruption rate of biofilm at 64 ug/ml measured by crystal violet staining method; format: functional; details: dose 64 µg/ml
Cell membrane [24] = test: Induction of cytoplasmic membrane depolarization in Escherichia coli ATCC 25922 assessed as increase in fluorescence intensity at 1 to 8 times MIC measured by DiSC3-5 dye based fluorescence method; format: subcellular
Cell membrane [25] = test: Induction of inner membrane permeabilization in Escherichia coli ATCC 25922 assessed as increase in PI uptake by measuring increase in fluorescence intensity at 4 to 32 ug/ml by propidium iodide staining based fluorescence analysis; format: subcellular; details: dose 4-32 µg/ml
Cell membrane [26] = test: Induction of cell membrane disruption in Staphylococcus aureus ATCC 43300 assessed as increase in fluorescence intensity at 8 times MIC measured after 2 hrs by PI staining based fluorescence microscopic analysis; format: subcellular
Cell membrane [27] = test: Induction of cell membrane disruption in Escherichia coli ATCC 25922 assessed as increase in fluorescence intensity at 8 times MIC measured after 2 hrs by PI staining based fluorescence microscopic analysis; format: subcellular
Cell membrane [28] = test: Induction of cell membrane disruption in Staphylococcus aureus ATCC 43300 assessed as increase in fluorescence intensity at 8 times MIC measured after 2 hrs by DAPI staining based fluorescence microscopic analysis
Cell membrane [29] = test: Induction of cell membrane disruption in Escherichia coli ATCC 25922 assessed as increase in fluorescence intensity at 8 times MIC measured after 2 hrs by DAPI staining based fluorescence microscopic analysis
[30] = Cytotoxicity against human HepG2 cells assessed as cell viability at 32 ug/ml measured by SRB assay; format: toxicity, cell-based; details: at 32 µg/mL, read-out: Activity
[31] = Cytotoxicity against human HepG2 cells assessed as cell viability at 64 ug/ml measured by SRB assay; format: toxicity, cell-based; details: at 64 µg/mL, read-out: Activity
[32] = Cytotoxicity against human HepG2 cells assessed as cell viability at 128 ug/ml measured by SRB assay; format: toxicity, cell-based; details: dose 128 µg/ml, read-out: Activity
Staphylococcus aureus [33] = test: In vivo antibacterial activity against Staphylococcus aureus ATCC 43300 in septicemia mouse model assessed as reduction in bacterial load in liver at 10 mg/kg, administered every 12 hrs for 3 days; format: functional; parameters: scale not given: the % may be the effect or the level left
Staphylococcus aureus [34] = test: In vivo antibacterial activity against Staphylococcus aureus ATCC 43300 in septicemia mouse model assessed as reduction in bacterial load in spleen at 10 mg/kg, administered every 12 hrs for 3 days; format: functional; parameters: scale not given: the % may be the effect or the level left
Staphylococcus aureus [35] = test: In vivo antibacterial activity against Staphylococcus aureus ATCC 43300 in septicemia mouse model assessed as reduction in bacterial load in kidney at 10 mg/kg, administered every 12 hrs for 3 days; format: functional; parameters: scale not given: the % may be the effect or the level left
Staphylococcus aureus [36] = test: In vivo antibacterial activity against Staphylococcus aureus ATCC 43300 in septicemia mouse model assessed as log reduction in bacterial load in liver at 10 mg/kg, administered every 12 hrs for 3 days; format: functional
Staphylococcus aureus [37] = test: In vivo antibacterial activity against Staphylococcus aureus ATCC 43300 in septicemia mouse model assessed as log reduction in bacterial load in spleen at 10 mg/kg, administered every 12 hrs for 3 days; format: functional
[38] = Toxicity in septicemia mouse model infected with Staphylococcus aureus ATCC 43300 assessed as effect on liver at 5 to 10 mg/kg, administered every 12 hrs for 3 days measured by histopathological analysis; format: organism-based; details: in vivo, dose 5-10 mg/kg
[39] = Toxicity in septicemia mouse model infected with Staphylococcus aureus ATCC 43300 assessed as effect on spleen at 5 to 10 mg/kg, administered every 12 hrs for 3 days measured by histopathological analysis; format: organism-based; details: in vivo, dose 5-10 mg/kg

SMILES: C=CCc1ccc(OCCC[N+](C)(C)CCCCCC)c(-c2ccc(OCCC[N+](C)(C)CCCCCC)c(CC=C)c2)c1.[Br-].[Br-]
- MIC (Staphylococcus aureus [1]): 0.5 µg/mL
- MIC (Pseudomonas aeruginosa): 16 µg/mL
- HC50 [2]: 410 µg/mL
- Activity (Staphylococcus aureus [3]): >=99%
- Activity (Escherichia coli [4]): >=99%
- fold change (FC) (Staphylococcus aureus [5]): <4
- inhibition at 0.25 µg/mL (Staphylococcus aureus [6]): 4.06%
- inhibition at 0.5 µg/mL (Staphylococcus aureus [7]): 9.72%
- inhibition at 2 µg/mL (Staphylococcus aureus [8]): 20.1%
- inhibition at 4 µg/mL (Staphylococcus aureus [9]): 91.2%
- inhibition at 8 µg/mL (Staphylococcus aureus [10]): 93.7%
- inhibition at 1 µg/mL (Escherichia coli [11]): 11.3%
- inhibition at 2 µg/mL (Escherichia coli [12]): 24.3%
- inhibition at 4 µg/mL (Escherichia coli [13]): 35.3%
- inhibition at 8 µg/mL (Escherichia coli [14]): 49.3%
- inhibition at 32 µg/mL (Escherichia coli [15]): 87.4%
- Activity (Staphylococcus aureus [16]): 17.61%
- Activity (Staphylococcus aureus [17]): 39.12%
- Activity (Escherichia coli [18]): 15.1%
- Activity (Escherichia coli [19]): 27.99%
- Activity (Escherichia coli [20]): 46.42%
- Activity (Escherichia coli [21]): 51.55%
- Activity (Escherichia coli [22]): 57.36%
- Activity (Escherichia coli [23]): 65.6%
- Activity (Cell membrane [24]): Active
- Activity (Cell membrane [25]): Active
- Activity (Cell membrane [26]): Active
- Activity (Cell membrane [27]): Active
- Activity (Cell membrane [28]): Active
- Activity (Cell membrane [29]): Active
- viability at 32 ug/ml [30]: 68.1%
- viability at 64 ug/ml [31]: 55.2%
- viability at 128 ug/ml [32]: 36.6%
- Activity (Staphylococcus aureus [33]): 99.5%
- Activity (Staphylococcus aureus [34]): 99.3%
- Activity (Staphylococcus aureus [35]): 98.7%
- log(activity) (Staphylococcus aureus [36]): 2.35
- log(activity) (Staphylococcus aureus [37]): 2.19
- Activity [38]: Non-Toxic
- Activity [39]: Non-Toxic
